# Activity calls are given as the source filed them. No cut-off for these calls is given here.
# Legend:
# HCT-116 [1] = assay: Antiproliferative activity against human HCT-116 cells overexpressing MDM2 assessed as cell growth inhibition incubated for 72 hrs by CCK-8 assay; assay type: functional, cell-based; conditions: HCT-116, 72 h
# SH-SY5Y [2] = assay: Antiproliferative activity against human SH-SY5Y cells overexpressing MDMX assessed as cell growth inhibition incubated for 72 hrs by CCK-8 assay; assay type: functional, cell-based
# Protein Mdm4 = biological target: T1, Protein Mdm4 (Homo sapiens, UniProt O15151); assay: Binding affinity to MDMX (1 to 118 residues) (unknown origin) assessed as inhibition constant incubated for 1 hr measured by fluorescence polarization assay
# T1 sequence (O15151 whole entry): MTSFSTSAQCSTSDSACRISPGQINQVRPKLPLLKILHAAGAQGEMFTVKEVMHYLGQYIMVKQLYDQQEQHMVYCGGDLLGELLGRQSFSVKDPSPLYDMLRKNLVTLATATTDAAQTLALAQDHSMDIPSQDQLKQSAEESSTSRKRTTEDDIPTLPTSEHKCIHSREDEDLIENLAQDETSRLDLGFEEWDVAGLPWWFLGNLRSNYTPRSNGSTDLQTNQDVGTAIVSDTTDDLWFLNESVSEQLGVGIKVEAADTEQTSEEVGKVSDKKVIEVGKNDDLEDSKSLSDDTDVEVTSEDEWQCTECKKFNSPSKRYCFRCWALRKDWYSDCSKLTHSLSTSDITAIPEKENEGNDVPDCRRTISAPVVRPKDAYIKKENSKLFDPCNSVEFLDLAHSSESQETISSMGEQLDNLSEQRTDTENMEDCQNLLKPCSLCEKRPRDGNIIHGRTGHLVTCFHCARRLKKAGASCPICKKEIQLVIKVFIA
# [3] = biological target: E3 ubiquitin-protein ligase Mdm2 (Homo sapiens, UniProt Q00987); assay: Binding affinity to MDM2 (1 to 118 residues) (unknown origin) assessed as inhibition constant incubated for 1 hr measured by fluorescence polarization assay
# E3 ubiquitin-protein ligase Mdm2, sequence (Q00987 whole entry, the tested form may be a part): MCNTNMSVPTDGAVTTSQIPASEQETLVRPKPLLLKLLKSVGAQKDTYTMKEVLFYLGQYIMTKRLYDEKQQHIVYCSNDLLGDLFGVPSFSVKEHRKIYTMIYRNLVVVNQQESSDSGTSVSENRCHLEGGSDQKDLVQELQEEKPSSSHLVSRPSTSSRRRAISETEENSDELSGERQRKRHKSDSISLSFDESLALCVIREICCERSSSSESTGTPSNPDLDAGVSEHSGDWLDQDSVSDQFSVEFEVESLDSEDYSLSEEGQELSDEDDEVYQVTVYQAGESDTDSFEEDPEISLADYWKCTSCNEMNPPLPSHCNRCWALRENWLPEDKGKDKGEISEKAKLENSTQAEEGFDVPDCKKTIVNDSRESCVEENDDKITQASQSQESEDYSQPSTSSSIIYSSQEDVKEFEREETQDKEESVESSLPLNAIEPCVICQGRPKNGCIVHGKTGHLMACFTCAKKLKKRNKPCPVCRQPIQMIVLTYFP
# SJSA-1 = assay: Antiproliferative activity against human SJSA-1 cells overexpressing MDM2 assessed as cell growth inhibition incubated for 72 hrs by CCK-8 assay; assay type: functional, cell-based; conditions: SJSA-1, 72 h
# [4] = Antiproliferative activity against human HCT116-p53-null cells overexpressing MDMX assessed as cell growth inhibition incubated for 72 hrs by CCK-8 assay; assay type: functional, cell-based
# [5] = Cytotoxicity against human LO2 cells incubated for 72 hrs by CCK-8 assay; assay type: toxicity, cell-based, L02
# HCT-116 [6] = assay: Inhibition of cell invasion in human HCT-116 cells measured using transwell chamber by crystal violet staining based microscopic analysis; assay type: functional; conditions: dose 0.2-0.6 µM
# SH-SY5Y [7] = assay: Inhibition of cell migration in human SH-SY5Y cells measured using transwell chamber by crystal violet staining based microscopic analysis; assay type: functional; conditions: dose 0.2-0.6 µM
# HCT-116 [8] = assay: Inhibition of colony formation in human HCT-116 cells incubated at 0.6 uM for 8 to 15 days measured by crystal violet staining based microscopic analysis; assay type: functional, cell-based; conditions: time 8-15 day
# [9] = Cytotoxicity against human BEAS-2B cells incubated for 72 hrs by CCK-8 assay; assay type: toxicity, cell-based
# SH-SY5Y [10] = assay: Inhibition of cell invasion in human SH-SY5Y cells measured using transwell chamber by crystal violet staining based microscopic analysis; assay type: functional; conditions: dose 0.2-0.6 µM
# SH-SY5Y [11] = assay: Inhibition of colony formation in human SH-SY5Y cells incubated at 0.6 uM for 8 to 15 days measured by crystal violet staining based microscopic analysis; assay type: functional, cell-based; conditions: time 8-15 day
# HCT-116 [12] = assay: Inhibition of cell migration in human HCT-116 cells measured using transwell chamber by crystal violet staining based microscopic analysis; assay type: functional; conditions: dose 0.2-0.6 µM
# HCT-116 [13] = assay: Induction of apoptosis in human HCT-116 cells assessed as apoptotic cells at 0.6 uM for 48 hrs measured by Annexin V-PI based flow cytometric analysis relative to control; assay type: functional
# HCT-116 [14] = assay: Induction of apoptosis in human HCT-116 cells assessed as apoptotic cells at 2.4 uM for 48 hrs measured by Annexin V-PI based flow cytometric analysis relative to control; assay type: functional
# SH-SY5Y [15] = assay: Induction of apoptosis in human SH-SY5Y cells assessed as apoptotic cells at 0.6 uM for 48 hrs measured by Annexin V-PI based flow cytometric analysis relative to control; assay type: functional
# HCT-116 [16] = assay: Induction of cell cycle arrest in human HCT-116 cells assessed as increase in accumulation of cells at G1 phase incubated at 0.6 to 2.4 uM for 48 hrs by measured by flow cytometric analysis; assay type: functional, cell-based; conditions: dose 0.6-2.4 µM
# [17] = biological target: Cellular tumor antigen p53 (Homo sapiens) (UniProt P04637); assay: Reactivation of p53 pathway in human HCT-116 cells assessed as increase in MDM2 level treated at 0.6 to 2.4 uM for 48 hrs measured by Western blotting analysis; assay type: cell-based; conditions: dose 0.6-2.4 µM
# Cellular tumor antigen p53 (Homo sapiens), sequence (P04637 whole entry, looked up): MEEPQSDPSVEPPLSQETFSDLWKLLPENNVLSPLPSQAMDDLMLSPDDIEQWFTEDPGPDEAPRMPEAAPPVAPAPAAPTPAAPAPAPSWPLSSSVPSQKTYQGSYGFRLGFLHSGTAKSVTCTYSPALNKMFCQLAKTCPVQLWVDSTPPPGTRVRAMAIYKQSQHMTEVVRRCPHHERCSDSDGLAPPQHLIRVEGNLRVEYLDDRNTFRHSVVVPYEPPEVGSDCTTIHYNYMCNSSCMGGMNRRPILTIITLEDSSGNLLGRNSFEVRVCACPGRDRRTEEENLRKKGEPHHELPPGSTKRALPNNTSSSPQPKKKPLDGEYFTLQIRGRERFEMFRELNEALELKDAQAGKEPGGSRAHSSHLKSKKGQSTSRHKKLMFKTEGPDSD
# SH-SY5Y [18] = assay: Reactivation of p53 pathway in human SH-SY5Y cells assessed as increase in p21 level treated at 0.6 to 2.4 uM for 48 hrs measured by Western blotting analysis; assay type: cell-based; conditions: dose 0.6-2.4 µM
# [19] = biological target: Tumour suppressor p53/oncoprotein Mdm2 (Homo sapiens) (UniProt P04637+Q00987); assay: Inhibition of protein binding in p53/MDM2 in human HCT116 cells assessed as disruption of protein-protein interaction measured at 1.2 uM for 48 hrs by co-immunoprecipitation based Western blotting analysis; assay type: cell-based; conditions: HCT-116
# Tumour suppressor p53/oncoprotein Mdm2 (Homo sapiens), sequence (P04637 whole entry, looked up): as above
# Tumour suppressor p53/oncoprotein Mdm2 (Homo sapiens), sequence (Q00987 whole entry, looked up): as the sequence (Q00987 whole entry, the tested form may be a part) above
# SH-SY5Y [20] = assay: Reactivation of p53 pathway in human SH-SY5Y cells assessed as increase in MDM2 level treated at 0.6 to 2.4 uM for 48 hrs measured by Western blotting analysis; assay type: cell-based; conditions: dose 0.6-2.4 µM
# HCT-116 [21] = assay: Induction of cell cycle arrest in human HCT-116 cells assessed as decrease in accumulation of cells at G2 phase incubated at 0.6 to 2.4 uM for 48 hrs by measured by flow cytometric analysis; assay type: functional, cell-based; conditions: dose 0.6-2.4 µM
# SH-SY5Y [22] = assay: Reactivation of p53 pathway in human SH-SY5Y cells assessed as increase in MDMX level treated at 0.6 to 2.4 uM for 48 hrs measured by Western blotting analysis; assay type: cell-based; conditions: dose 0.6-2.4 µM
# SH-SY5Y [23] = assay: Induction of cell cycle arrest in human SH-SY5Y cells assessed as decrease in accumulation of cells at G2 phase incubated at 0.6 to 2.4 uM for 48 hrs by measured by flow cytometric analysis; assay type: functional, cell-based; conditions: dose 0.6-2.4 µM
# SH-SY5Y [24] = assay: Reactivation of p53 pathway in human SH-SY5Y cells assessed as increase in cleaved caspase 3level treated at 0.6 to 2.4 uM for 48 hrs measured by Western blotting analysis; assay type: cell-based; conditions: dose 0.6-2.4 µM
# SH-SY5Y [25] = assay: Induction of apoptosis in human SH-SY5Y cells assessed as apoptotic cells at 2.4 uM for 48 hrs measured by Annexin V-PI based flow cytometric analysis relative to control; assay type: functional
# SH-SY5Y [26] = assay: Induction of cell cycle arrest in human SH-SY5Y cells assessed as increase in accumulation of cells at G1 phase incubated at 0.6 to 2.4 uM for 48 hrs by measured by flow cytometric analysis; assay type: functional, cell-based; conditions: dose 0.6-2.4 µM
# SH-SY5Y [27] = assay: Reactivation of p53 pathway in human SH-SY5Y cells assessed as increase in p53 level treated at 0.6 to 2.4 uM for 48 hrs measured by Western blotting analysis; assay type: cell-based; conditions: dose 0.6-2.4 µM
# [28] = biological target: Cellular tumor antigen p53 (Homo sapiens) (UniProt P04637); assay: Reactivation of p53 pathway in human HCT-116 cells assessed as increase in p21 level treated at 0.6 to 2.4 uM for 48 hrs measured by Western blotting analysis; assay type: cell-based; conditions: dose 0.6-2.4 µM
# [29] = biological target: Cellular tumor antigen p53 (Homo sapiens) (UniProt P04637); assay: Reactivation of p53 pathway in human HCT-116 cells assessed as increase in MDMX level treated at 0.6 to 2.4 uM for 48 hrs measured by Western blotting analysis; assay type: cell-based; conditions: dose 0.6-2.4 µM
# HCT-116 [30] = assay: Reactivation of p53 pathway in human HCT-116 cells assessed as increase in cleaved caspase 3 level treated at 0.6 to 2.4 uM for 48 hrs measured by Western blotting analysis; assay type: cell-based; conditions: dose 0.6-2.4 µM
# HCT-116 [31] = assay: Reactivation of p53 pathway in human HCT-116 cells assessed as increase in p53 level treated at 0.6 to 2.4 uM for 48 hrs measured by Western blotting analysis; assay type: cell-based; conditions: dose 0.6-2.4 µM
# SH-SY5Y [32] = assay: Antiproliferative activity against human SH-SY5Y cells overexpressing MDMX assessed as cell growth inhibition incubated at 10 uM for 72 hrs by CCK-8 assay relative to control; assay type: functional
# HCT-116 [33] = assay: Antiproliferative activity against human HCT-116 cells overexpressing MDM2 assessed as cell growth inhibition incubated at 10 uM for 72 hrs by CCK-8 assay relative to control; assay type: functional
smiles,measurement,setting,value
CC(=O)N1CCN(C(=O)CCC(=O)N(c2ccc(Cl)cc2)C(C(=O)c2ccc(Cl)cc2)c2ccc(F)cc2Cl)CC1 (configuration not stated),IC50,HCT-116 [1],4.21 µM
same,IC50,SH-SY5Y [2],4.1 µM
same,Ki,Protein Mdm4,7.43 µM
same,Ki,[3],350 nM
same,IC50,SJSA-1,3.79 µM
same,IC50,[4],26.8 µM
O=C(c1ccc(Cl)cc1)C(c1ccc(F)cc1Cl)N(C(=O)CCC(=O)N1CCN(CCO)CC1)c1ccc(Cl)cc1 (configuration not stated),IC50,HCT-116 [1],3.97 µM
same,IC50,SH-SY5Y [2],4.42 µM
same,Ki,Protein Mdm4,11.6 µM
same,Ki,[3],480 nM
same,IC50,SJSA-1,4.36 µM
same,IC50,[4],15.6 µM
O=C(CCC(=O)N(c1ccc(Cl)cc1)C(C(=O)c1ccc(Cl)cc1)c1ccc(F)cc1Cl)NCCN1CCOCC1 (configuration not stated),IC50,HCT-116 [1],7.69 µM
same,IC50,SH-SY5Y [2],5.44 µM
same,Ki,Protein Mdm4,13 µM
same,Ki,[3],560 nM
same,IC50,SJSA-1,6.74 µM
same,IC50,[4],28.4 µM
CN(C)C1CCN(C(=O)CCC(=O)N(c2ccc(Cl)cc2)C(C(=O)c2ccc(Cl)cc2)c2ccc(F)cc2Cl)CC1 (configuration not stated),IC50,HCT-116 [1],0.72 µM
same,IC50 at 72 h,[5],12.7 µM
same,IC50,SH-SY5Y [2],0.69 µM
same,Ki,Protein Mdm4,3.46 µM
same,inhibition,HCT-116 [6],Dose-Dependent Effect
same,inhibition,SH-SY5Y [7],Dose-Dependent Effect
same,inhibition,HCT-116 [8],Active
same,Ki,[3],280 nM
same,IC50 at 72 h,[9],16.3 µM
same,inhibition,SH-SY5Y [10],Dose-Dependent Effect
same,inhibition,SH-SY5Y [11],Active
same,inhibition,HCT-116 [12],Dose-Dependent Effect
same,IC50,SJSA-1,0.64 µM
same,IC50,[4],13.6 µM
O=C(c1ccc(Cl)cc1)C(c1ccc(F)cc1Cl)N(C(=O)CCC(=O)N1CCNCC1)c1ccc(Cl)cc1 (configuration not stated),IC50,HCT-116 [1],0.68 µM
same,Activity,HCT-116 [13],13.63%
same,Activity,HCT-116 [14],37.6%
same,IC50 at 72 h,[5],15.9 µM
same,Activity,SH-SY5Y [15],15.69%
same,IC50,SH-SY5Y [2],0.54 µM
same,Ki,Protein Mdm4,2.45 µM
same,Activity,HCT-116 [16],Active
same,Activity,[17],Active
same,inhibition,HCT-116 [6],Dose-Dependent Effect
same,inhibition,SH-SY5Y [7],Dose-Dependent Effect
same,inhibition,HCT-116 [8],Active
same,Activity,SH-SY5Y [18],Active
same,Ki,[3],230 nM
same,inhibition,[19],Active
same,Activity,SH-SY5Y [20],Active
same,Activity,HCT-116 [21],Active
same,Activity,SH-SY5Y [22],Active
same,Activity,SH-SY5Y [23],Active
same,IC50 at 72 h,[9],18 µM
same,Activity,SH-SY5Y [24],Active
same,Activity,SH-SY5Y [25],40.8%
same,Activity,SH-SY5Y [26],Active
same,inhibition,SH-SY5Y [10],Dose-Dependent Effect
same,Activity,SH-SY5Y [27],Active
same,inhibition,SH-SY5Y [11],Active
same,Activity,[28],Active
same,inhibition,HCT-116 [12],Dose-Dependent Effect
same,IC50,SJSA-1,0.58 µM
same,Activity,[29],Active
same,IC50,[4],14 µM
same,Activity,HCT-116 [30],Active
same,Activity,HCT-116 [31],Active
COc1ccc(C2=N[C@H](c3ccc(Cl)cc3)[C@H](c3ccc(Cl)cc3)N2C(=O)N2CCNC(=O)C2)c(OC(C)C)c1,IC50,HCT-116 [1],11.3 µM
same,inhibition at 10 µM,SH-SY5Y [32],46.5%
same,inhibition,HCT-116 [8],Active
same,inhibition at 10 µM,HCT-116 [33],49.2%
same,inhibition,SH-SY5Y [11],Active
same,IC50,[4],29.5 µM
COC(=O)c1ccc(NC(=O)CCC(=O)N(c2ccc(Cl)cc2)C(C(=O)c2ccc(Cl)cc2)c2ccc(F)cc2Cl)cc1 (configuration not stated),IC50,HCT-116 [1],14 µM
same,IC50,SH-SY5Y [2],13 µM
same,Ki,Protein Mdm4,29.1 µM
same,Ki,[3],960 nM
same,IC50,SJSA-1,13.9 µM
same,IC50,[4],23.1 µM
